Results published in patent US20130096070A1, “PEPTIDE TARGETING OF INNER EAR CELLS” (priority 2009, published 2013).
No end group written: not given here.

How the values were obtained:
[1] = tested on: vestibular hair cells; experiment: Vestibular hair cell counts after intracochlear neomycin and adenovector atoh1 delivery; details: aminoglycoside (neomycin 10^-3 M, 2 μl into inner ear) only, n=5; untreated controls 21.8+2
Description: Characterization of atoh1/math1 effects were as follows. Unilateral vestibular damage was induced by injecting 2 μl of neomycin (10^−3 M) in to the inner ear of mice. After inducing unilateral vestibular dysfunction mice received an intracochlear injection of an advanced generation adenovector carrying atoh1 driven by a human CMV promoter (Admath1.11D) via the round window membrane into the scala tympani. […] After one month recovery, animals were sacrificed and processed for histology. […] Cells were identified by position of the nucleus and every fifth section was counted and expressed as cell number per 100 μm length of neuroepithelium.

[2] = tested on: myosin VII positive hair cells; details: mouse, in vivo
Description: Briefly, mice were treated with an injection of neomycin 10^−3 M into the scala tympani. After 5 days animals were re-anesthetized and 1 μl of Ad.math1.11d (108 pu) were delivered via a fenestration in the posterior semicircular canal. After 4 weeks, animals were sacrificed and then processed for myosin VII immunohistochemistry.

[3] = mouse, in vivo
Description: As a screening test for balance function, mice were swim tested by dropping them from a fixed height into an opaque pool of water. […] Animals with impaired vestibular function are known to have to prolonged swim times. Mice were swim tested two months after aminoglycoside ablation followed by no treatment or treatment with Ad math1.11D.

[4] = tested on: Organ of Corti; experiment: Immunohistochemistry identification of phage binding regions in mouse inner ear (Organ of Corti); type: in vivo; details: phage 1×10^9 pfu injected into round window of neomycin-treated mice, anti-M13 immunostaining 1 hour after inoculation
Description: (§1) Candidate 7-mer peptide epitopes were selected from the BLAST queried sequences. Colonies were amplified in 20 ml LB media and recovered as previously described. Phage (1×10^9 pfu) were injected into the round window of mice previously treated with 1 μl 0.01 M neomycin injected into the posterior channel 48 hours prior to phage innoculation. Mice were sacrificed by intracardiac perfusion with 4% PBS buffered paraformaldehyde 1 hour after phage inoculation. The temporal bones were isolated and decalcified in Calex (Fisher Scientific, Pittsburgh, Pa.) for 24 hours. The temporal bones were embedded in paraffin and sectioned. Primary antibody directed against the M13 protein (rabbit anti-M13) in 1/100 concentration was added to tissue samples and allowed to incubate for 12 hrs at 4° C. The samples were washed in PBS and incubated with 1/50 concentration fluorescent secondary antibody (goat anti-rabbit, FITC) for 12 hrs at 4° C. After washing, tissue sections were visualized and photographed via fluorescent microscopy.
To determine the potential for identified peptide sequences to bind […] be purified individual batches of phage and injected them into the perilymph via the round window. The animals were allowed to recover and were then fixed via perfusion. Sections of the inner ear were immunostained for the presence phage to determine if the phage had been able to localize to supporting cells in vivo. […] The most common pattern of distribution that was seen was binding to the basement membrane.

[5] = tested on: mouse saccule and utricle cultures; experiment: Phage display panning of mouse saccule and utricle cultures, sequencing of colonies; type: binding; details: colonies with this sequence among one hundred colonies sequenced after four rounds of panning
Description: C57B1/6 Mice were purchased from Jackson Laboratory (Bar Harbour, Me.). At 8 weeks of age the mice were sacrificed and saccule and utricles were isolated under direct visualization. The cells were cultured in 100 μl DMEM/0.001 M neomycin for 48 hours as is standard. All animal protocols were approved by the University of Kansas animal research advisory committee.
A phage library (New England Biolabs, Beverly, Mass.) displaying random 7-mer peptides attached to the NH2-terminus of the pIII protein of the filamentous M13 bacteriophage was used for panning with mouse inner ear cells. In round 1 of panning, 2×10^11 plaque-forming units of the phage library in 200 μl of 1×PBS buffer were added to the inner ear cells and were incubated for 4 h at 4° C. with shaking. The cells were washed 10× with Tris-buffered saline/0.1% Tween under direct visualization and the remaining bound phage were eluted for 10 min with 100 μl of 0.2 M glycine-HCl, pH 2.2, and neutralized with 15 μl of 1 M Tris-HCl, pH 9. A 10 μl aliquot was used for tittering and the remaining eluate was used to infect early log phase ER2738 host bacteria in 20 ml LB media and amplified for 4.5 h at 37° C. with shaking. Bacteria were removed by pellet centrifugation 2×10 min at 10,000 g. The supernantant was added to ⅙ quantity 20% (w/v) polyethylene glycol-8000, 2.5 M NaCl. After overnight incubation at 4° C., the phage was pelleted by centrifugation at 15 min at 10,000 g, and resuspended in 200 μl TBS. Amplified phage product was tittered on X-gal/IPTG plates. A 10 μl aliquot from the phage pool was used to titer phage pfu/μl before and after phage amplification in E. coli. In subsequent rounds 2×10^11 plaque-forming units of the amplified phage pool from the previous round were added to mouse inner ear cells and panned was performed as previously described. All panning experiments were performed in duplicate.
After 4 rounds of panning, isolated colonies were streak plated on X-gal/IPTG plates. Individual colonies were used to infect early log phase ER2738 host bacteria in 4 ml LB media and amplified for 4.5 h at 37° C. The bacteria was pelleted by centrifugation and phage recovered from the supernatant using QIAprep Spin M13 kit (Qiagen, Valencia, Calif.) and resuspended in 50 μl molecular grade water. ssDNA quantity was determined by absorption spectrophotometry. The 7-mer peptide DNA coding regions were sequenced using a −96 gIII sequencing primer (5′-CCCTCATAGTTAGCGTAACG-3′). These sequences were translated and queried on the BLAST protein database (NCBI).
One hundred colonies were sequenced (Table 1). There were 23 colonies which translated to the peptide sequence t-v-p-q-l-t-t, which was homologous to the protein laminin. Eleven colonies which translated to the peptide sequence s-t-t-k-l-a-l, which was homologous to a sodium/hydrogen exchanger protein. Eight colonies which translated to the peptide sequence m-e-g-y-i-h-r, which was homologous to the protein cathepsin L. Two colonies each that translated to the peptide sequences h-a-i-y-p-r-h, h-s-r-l-l-d-q, i-q-s-p-h-f-f and y-a-a-h-r-s-h, which were homologous to the proteins itchy 3, discs large homolog, protocadherin and myelin transcription factor 1, respectively. The remaining colony sequences occurred only once, however within these sequences, several translated to peptides that had homology to the same protein. For example, a-h-p-h-h-s-m and h-p-h-h-r-i-f both contained the peptide sequence h-p-h-h with homology to mitogen activated protein kinase 8.

[6] = tested on: Macular Organs; experiment: Immunohistochemistry identification of phage binding regions in mouse inner ear (Macular Organs); type: in vivo; details: phage 1×10^9 pfu injected into round window of neomycin-treated mice, anti-M13 immunostaining 1 hour after inoculation
Description: as §1
To determine the potential for identified peptide sequences to bind in vitro be purified individual batches of phage and injected them into the perilymph via the round window. The animals were allowed to recover and were then fixed via perfusion. […]

Row | Molecule | Phage binding site, Organ of Corti [4] | # of Common Sequences [5] | further results
1 | NC[C@@H]1O[C@H](O[C@H]2[C@@H](O)[C@H](O[C@@H]3[C@@H](O)[C@H](N)C[C@H](N)[C@H]3O[C@H]3O[C@H](CN)[C@@H](O)[C@H](O)[C@H]3N)O[C@@H]2CO)[C@H](N)[C@@H](O)[C@@H]1O [aminoglycoside, neomycin] |  |  | average hair cell counts, serially sectioned saccules [1]: 2.2+2 /100 μm; myosin VII positive cells in macular organs [2]: only occasional myosin VII positive cells; swim time (time to initiate purposeful swimming) [3]: 22+4.2 seconds
2 | ALQYHNL [phage pIII NH2 terminal 7 amino acid peptide] | No binding | 1 | 
3 | HPHHRIF [phage pIII NH2 terminal 7 amino acid peptide] | No binding | 1 | 
4 | HisAlaIleTyrProArgHis (HAIYPRH; printed: HisAlaIleTyrProArgHis) [phage pIII NH2 terminal 7 amino acid peptide] |  | 2 | 
5 | MPIPRPP [phage pIII NH2 terminal 7 amino acid peptide] |  | 1 | 
6 | PPRPIPM | No binding |  | 
7 | ProThrProMeThrLeuTyr |  |  | Phage binding site, Macular Organs [6]: No binding
8 | SEGRLYK [phage pIII NH2 terminal 7 amino acid peptide] | No binding | 1 | 
9 | SNQLLMT [phage pIII NH2 terminal 7 amino acid peptide] | No binding | 1 | 
10 | STTKLAL [phage pIII NH2 terminal 7 amino acid peptide] | No binding | 11 | 
11 | THQARSV [phage pIII NH2 terminal 7 amino acid peptide] | No binding | 1 | 
12 | ahphhsm: phage pIII NH2 terminal 7 amino acid peptide (AHPHHSM) |  | 1 | 
13 | getrapl |  | 1 | 
14 | hsrlldq: phage pIII NH2 terminal 7 amino acid peptide (HSRLLDQ) |  | 2 | 
15 | iqsphff: phage pIII NH2 terminal 7 amino acid peptide (IQSPHFF) |  | 2 | 
16 | megyihr: phage pIII NH2 terminal 7 amino acid peptide (MEGYIHR) |  | 8 | 
17 | tvpqltt: phage pIII NH2 terminal 7 amino acid peptide (TVPQLTT) |  | 23 | 
18 | yaahrsh: phage pIII NH2 terminal 7 amino acid peptide (YAAHRSH) |  | 2 | 
